{
  "source": "BindingDB's records for doi:10.1021/jm0205752",
  "about": "(University of Queensland, 2004)",
  "target": "T1, Alpha-2A adrenergic receptor [16-465] (Rattus norvegicus, UniProt P22909)",
  "T1 construct": "16-465",
  "T1 sequence (P22909 whole entry)": "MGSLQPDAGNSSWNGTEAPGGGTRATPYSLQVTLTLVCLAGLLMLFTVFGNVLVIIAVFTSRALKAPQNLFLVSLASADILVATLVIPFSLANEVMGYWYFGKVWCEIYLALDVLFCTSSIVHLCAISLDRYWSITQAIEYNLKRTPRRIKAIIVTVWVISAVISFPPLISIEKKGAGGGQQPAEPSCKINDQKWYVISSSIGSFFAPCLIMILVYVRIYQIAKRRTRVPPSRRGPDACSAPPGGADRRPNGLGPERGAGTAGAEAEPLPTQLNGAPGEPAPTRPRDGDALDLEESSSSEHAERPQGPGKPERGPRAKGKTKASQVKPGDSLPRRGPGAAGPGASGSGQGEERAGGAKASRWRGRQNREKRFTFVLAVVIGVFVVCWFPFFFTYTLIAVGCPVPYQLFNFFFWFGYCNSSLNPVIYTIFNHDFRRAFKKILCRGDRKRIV",
  "assay": "alpha-Adrenoceptor Radioligand Binding Assay",
  "details": "pH 7.7; 25 °C",
  "protocol": "The binding affinity of compound was evaluated using [3H] Clonidine as ligand in competition binding experiments. Nonspecific binding was determined as the concentration of ligand bound in the presence of 2 uM phentolamine. Ki values were determined by the equation: Ki = IC50/(1 + [clonidine]/KD).",
  "data": [
    {"smiles": "NS(=O)(=O)c1ccc2c(c1)CNCC2", "note": "[1,2,3,4-tetrahydroisoquinoline-7-sulfonamide]", "values": [
      {"measurement": "Ki", "value": 100, "unit": "µM"}
    ]}
  ]
}
